Assay results as given in patent EP4424327A1, “METHOD OR AGENT WITH HDAC REGULATOR, FOR TREATMENT OF DIABETES AND COMPLICATIONS” (Biozipcode, Inc., priority 2021, dated 2023).

Assays:
STZ-DM mice [1] = test: Intraperitoneal glucose tolerance test (IPGTT) 12 weeks after start of treatment (Example 3); format: in vivo, C57BL/6 J mice; conditions: insulin pellet + givinostat compared with blank pellet + givinostat, 1.5 g/kg glucose i.p.
Procedure: (§1) Blood glucose levels were measured weekly for 12 weeks. In addition, an intraperitoneal glucose tolerance test (IPGTT) was performed on some mice 12 weeks after the start of treatment. After 16 hours of fasting, blood glucose level measurement and blood collection were performed at 0 minutes, 100 µl of a 1.5 g/kg glucose solution was intraperitoneally administered, and blood glucose level measurement and blood collection were performed at 30 minutes, 60 minutes, and 120 minutes, respectively. Serum was collected from the collected blood, and the serum insulin concentration was measured using an ultra-sensitive mouse insulin measurement kit (Morinaga Institute of Biological Science, Inc., Japan). FIG. 15 illustrates the transition of blood glucose, and FIG. 16 illustrates the transition of insulin concentration.

STZ-DM mice [2] = test: Drug treatment of STZ-DM mice (Example 3): weekly blood glucose levels; format: in vivo, C57BL/6 J mice
Procedure: An overview of the procedure is illustrated in FIG. 13. Streptozotocin (150 mg/kg) was tail vein-administered to C57BL/6 J mice (wild type, CLEA Japan, Inc., Osaka) (nonDM) to develop diabetes mellitus. For the STZ-DM mouse, the blood glucose level was normalized by insulin pellet administration, and the blank pellet was administered to a control group. In both the treatment group and the control group, 2.5 mg/kg of givinostat (Cayman chemical, USA) was administered to the tail vein or orally. The insulin pellet or the blank pellet was administered up to 3 days before the start of the givinostat treatment, and the administration of givinostat was started on the day on which it was confirmed that the blood glucose level of the treatment group fell within the normal range on day 0. Note that givinostat was administered once every three days until week 8. In addition, a non-diabetic group (nonDM) in which only a buffer was administered without administering STZ simultaneously with the treatment group, and a non-treated diabetic group (STZ-DM) in which neither blood glucose control nor treatment with givinostat was performed were also observed simultaneously.
as §1

STZ-DM mice [3] = test: Weight of the collected thymus (Example 3); format: in vivo, C57BL/6 J mice; conditions: givinostat simultaneously with blood glucose control, both oral and intravenous; non-diabetic 37 mg, diabetic 13 mg
STZ-DM mice [4] = test: Effect of thymectomy on treatment of STZ-DM mice (Example 8); format: in vivo, C57BL/6 J mice
Procedure: Streptozotocin (150 mg/kg) was tail vein-administered to C57BL/6 J mice (wild type, CLEA Japan, Inc., Osaka) to develop diabetes mellitus. After one month of free feeding, an insulin pellet was subcutaneously administered to these STZ-DM mice to normalize their blood glucose levels. The mice were divided into two groups, for one group of mice, the thymus was removed from the suprasternal fossa (thymectomy group), and for the other group of mice, an incision was made in the suprasternal fossa and closed immediately (control group). Givinostat (Cayman chemical, USA) was orally administered at 2.5 mg/kg to both the thymectomy group and the control group. Givinostat was administered once every three days.
Blood glucose levels of mice in both groups were measured weekly (FIG. 24). After the end of 8 weeks of treatment, perfusion fixation was performed on both groups of mice to confirm the presence or absence of thymus (FIG. 25).

STZ-DM mice [5] = test: Insulin and glucagon DAB staining of frozen pancreas sections (Example 3); format: in vivo, C57BL/6 J mice; conditions: givinostat administered simultaneously with blood glucose control (insulin pellet)
Procedure: 12 weeks after the start of treatment, some mice were subjected to perfusion fixation with a 4% PFA solution in 0.1 M PB and harvested pancreatic tissue was immersed overnight in a 15% sucrose solution in 0.1 M PB, and then, 8 um frozen sections were prepared with a cryostat. The frozen sections were washed 3 times with PBS (-) for 10 minutes, reacted in a 0.3% hydrogen peroxide solution (0.3% H2O2 in PBS (-)) for 30 minutes at room temperature to inactivate endogenous peroxidase in the sections, and then washed 3 times for 5 minutes with PBS (-). Thereafter, in order to prevent non-specific reactions, the sections were reacted with 5% normal goat serum in PBS (-) supplemented with 0.3% Triton X and blocked at room temperature for 1 hour. After blocking, the sections were reacted with a primary antibody (anti-insulin antibody: CST Inc. or anti-glucagon antibody: CST Inc.) at 4°C overnight. Thereafter, the sections was washed 3 times with PBS (-) for 5 minutes, reacted in ImmPRESS reagent (Vector laboratory) at room temperature for 30 minutes, and further washed. […] The prepared sections were observed under a microscope, about 5 to 8 pancreatic islets were randomly selected, and the percentage of insulin or glucagon positive cells relative to the size of the pancreatic islets was calculated using Image J software.

NOD mice = test: Treatment of diabetes mellitus in NOD mice with HDAC regulator and blood glucose control (Example 4); format: in vivo; conditions: givinostat 2.5 mg/kg orally daily + insulin glargine s.c. daily (tapered from 10 IU), 8-12 weeks
Procedure: (§2) The treatment was started for NOD mice one week after confirmation of the onset of hyperglycemia. […] 2 hours after administration of insulin glargine, 2.5 mg/kg of givinostat was orally administered daily to a mouse whose blood glucose level was measured and blood glucose lowering was confirmed. When the blood glucose level before administration of insulin glargine was lower than 200 mg/dl at longer than 8 weeks after the start of treatment, the administration of insulin glargine and givinostat on that day was discontinued. When the blood glucose level on the next day was also below 200 mg/dl, insulin glargine and givinostat were stopped, and then, the blood glucose level was measured weekly until week 4 to determine the diabetic state. […] When hypoglycemia appeared, blood glucose levels were measured 1 hour after intraperitoneal (300 µL) administration of 25% glucose solution, and this operation was repeated when hypoglycemia was still persistent. […] When hypoglycemia was confirmed, the subsequent insulin was adjusted to 1/2 of the previous dose as necessary.

STZ-DM mice [6] = test: TNF-α immunostaining (DAB staining) of bone marrow, thymus and pancreatic islets (Example 3); format: in vivo, C57BL/6 J mice
Procedure: In addition, mice in each experimental group were subjected to perfusion fixation, and then dissected to collect the femur, thymus, and pancreas. In the femur, bone tissue was demineralized using a neutral demineralizing solution (10% EDTA solution) to prepare a paraffin block. A paraffin section having a thickness of 3 µm was prepared from the paraffin block using a microtome, and was stained with DAB. As pretreatment for DAB staining, the paraffin section was deparaffinized with xylene and hydrophilized with ethanol, and the antigen was activated using HistoVT one (Nacalai Tesque). Thereafter, DAB staining was performed using TNF-α (abcam).

db/db mice [7] = test: Treatment of db/db mice with HDAC regulator and dapagliflozin (Example 6); format: in vivo; conditions: givinostat 2.5 mg/kg + dapagliflozin 1.0 mg/kg orally daily for 8 weeks, then 4 weeks off treatment
Procedure: Db/db mice were observed from week 6, and the time point at which the blood glucose level exceeded 300 mg/dl was defined as the onset of diabetes mellitus. In db/db mice with leptin receptor deficiency, 1.0 mg/kg of dapagliflozin, an SGLT inhibitor, and 2.5 mg/kg of givinostat, an HDAC regulator, were orally administered daily for 8 weeks, after which the treatment was discontinued for 4 weeks and terminated.

db/db mice [8] = test: Treatment of db/db mice with HDAC regulator and insulin glargine (Example 5); format: in vivo; conditions: givinostat 2.5 mg/kg orally daily + insulin glargine s.c. daily (tapered from 10 IU), 8-12 weeks
Procedure: as §2, with “Db/db mice were observed from week 6, and the time point at which the blood glucose level exceeded 300 mg/dl” for “The treatment”, “defined as” for “started for NOD mice one week after confirmation of”, “diabetes mellitus.” for “hyperglycemia.”

[9] = givinostat simultaneously with blood glucose control (insulin pellet)

## CCN(CC)Cc1ccc2cc(COC(=O)Nc3ccc(C(=O)NO)cc3)ccc2c1 [givinostat]
STZ-DM mice [1]
  blood glucose levels after IPGTT: early normalization of blood glucose levels
  insulin in blood after IPGTT: high blood insulin elevation
STZ-DM mice [2]; givinostat 2.5 mg/kg for 8 weeks without insulin pellet (blank pellet)
  blood glucose level: the blood glucose level did not decrease even when givinostat was administered for 8 weeks
STZ-DM mice [2]; insulin pellet + givinostat 2.5 mg/kg (oral or intravenous, once every three days for 8 weeks), start of treatment
  blood glucose levels: immediately decreased
STZ-DM mice [2]; insulin pellet + givinostat (both orally and intravenously), after discontinuing givinostat after week 9, up to week 12
  blood glucose level: the reduction in blood glucose level continued even after discontinuing givinostat after week 9
STZ-DM mice [3]
  thymus weight, relative to normal: about 2/3
STZ-DM mice [4]; control group without thymectomy, insulin pellet + givinostat 2.5 mg/kg orally once every three days, 8 weeks
  blood glucose levels: no increase in blood glucose levels was observed
STZ-DM mice [4]; control group without thymectomy, insulin pellet + givinostat, week 8
  thymus atrophied by diabetes mellitus: recovered to a normal level
STZ-DM mice [4]; thymectomy group, insulin pellet + givinostat 2.5 mg/kg orally once every three days, 8 weeks
  blood glucose level at the end of treatment: about 400 mg/dL
STZ-DM mice [4]; thymectomy group, insulin pellet + givinostat, week 8
  thymus: the thymus did not recover even when the treatment was performed
STZ-DM mice [5]; nonDM about 10%, STZ-DM 75%
  area of glucagon positive cells, of the entire pancreatic islets: about 40%
STZ-DM mice [5]; pancreatic islets, 12 weeks
  area of insulin positive cells, relative to nonDM: about 1/2
NOD mice
  diabetes mellitus outcome: cured
STZ-DM mice [6]; blank pellet + givinostat treatment (oral) and (intravenous)
  TNF-α positive cells in pancreatic islets: a large amount of TNF-α positive cells migrated to the center of the pancreatic islets
STZ-DM mice [6]; [9]
  TNF-α positive cells in bone marrow: TNF-α positive cells decreased to the same extent as the non-diabetic group
  TNF-α positive cells in thymus: TNF-α positive cells decreased to the same extent as the non-diabetic group
STZ-DM mice [6]; insulin pellet + givinostat treatment (oral) and (intravenous)
  TNF-α positive cells in pancreatic islets: almost no TNF-α positive cells were observed
db/db mice [7]
  diabetes mellitus outcome: cured
db/db mice [8]
  diabetes mellitus outcome: cured
